In US20180305334A1, “COMPOUNDS, COMPOSITIONS AND METHODS OF USE AGAINST STRESS GRANULES” (Aquinnah Pharmaceuticals, Inc., priority 2015, published 2018):

Each molecule was assayed on TDP-43 aggregation in PC12 cells stably expressing TDP-43^Q331K::eGFP (assay: In vitro efficacy assay, TDP-43 aggregation concentration-response). Details: Rattus norvegicus, PC-12, inhibition of TDP-43 aggregation; PC12 TDP-43^Q331K::eGFP, 1 hour pre-treatment, 15 μM sodium arsenite for 23 hours; 10-point dose response.
Format: cell-based
Procedure: Exemplary compounds of the invention were evaluated for efficacy in inhibiting TDP-43 inclusions using a concentration-response assay. Briefly, PC12 cells stably expressing a GFP-tagged mutant form of TDP-43 (TDP-43^Q331K::eGFP) were pre-treated for 1 hour with exemplary compounds and stressed with 15 μM sodium arsenite for 23 hours to induce TDP-43 aggregation. The inhibitory effect on TDP-43 aggregation was measured using fluorescence microscopy. The ratio of cells with TDP-43 aggregates was calculated based on the total number of cells with detectable GFP expression.

Compound | IC50
CCN(CC1CCCNC1)C(=O)c1cc2ccc(C)cc2[nH]1 (centres unmarked) [compound 417] | > 10 µM
CCN(CC1CCN(Cc2ccc(OC)cc2)CC1)C(=O)c1cc2cc(OC)ccc2[nH]1 [compound 404] | < 1.5 µM
CC(C)(Cc1ccccc1)N1CCCC(CN(CC(F)(F)F)C(=O)c2cc3ccccc3[nH]2)C1 (centres unmarked) [Compound 351] | < 1.5 µM
CCN(CC1CCCN(Cc2ccc(OC(F)F)cc2)C1)C(=O)c1cc2cc(OC(F)F)ccc2[nH]1 (centres unmarked) [Compound 178] | < 1.5 µM
CCN(CC1CCCN(Cc2ccc(OC)cc2)C1)C(=O)c1cc2cccc(F)c2[nH]1 (centres unmarked) [Compound 158] | 4 to 7 µM
CCN(CC1CCCN(Cc2ccc(Cl)cc2)C1)C(=O)c1cc2ccc(OC)cc2[nH]1 (centres unmarked) [Compound 159] | 1.5 to 4 µM
CCN(CC1CCCN(C(C)(C)c2ccc(OC)cc2)C1)C(=O)c1cc2ccccc2[nH]1 (centres unmarked) [Compound 355] | < 1.5 µM
CCN(CC1CCCN(CCc2cc3ccccc3o2)C1)C(=O)c1cc2ccccc2[nH]1 (centres unmarked) [Compound 181] | 7 to 9.9 µM
CCN(CC1CCN(C(C)(C)Cc2cccc(F)c2)CC1)C(=O)c1cc2ccccc2[nH]1 [Compound 330] | < 1.5 µM
CCN(CC1CCCN(C(C)(C)Cc2cccc(OC)c2)C1)C(=O)c1cc2ccccc2[nH]1 (centres unmarked) [compound 312] | 1.5 to 4 µM
O=C(c1cc2ccccc2[nH]1)N(CC1CCN(CCc2ccccc2)CC1)CC(F)(F)F [compound 305] | < 1.5 µM
CN(CC1CCN(Cc2ccccc2F)CC1)C(=O)c1cc2ccccc2[nH]1 [compound 258] | > 10 µM
CCN(CC1CCN(C(C)(C)CC2CCOCC2)CC1)C(=O)c1cc2ccccc2[nH]1 [Compound 365] | 1.5 to 4 µM
CCN(CC1CCCN(CCc2cccc(OC)c2)C1)C(=O)c1cc2cc(OC)ccc2[nH]1 (centres unmarked) [Compound 244] | > 10 µM
CCN(CC1CCCN(CCc2cccc(OC)c2)C1)C(=O)c1ccccn1 (centres unmarked) [Compound 236] | > 10 µM
CN(CC1CCN(Cc2ccc(Cl)cc2)CC1)C(=O)c1cc2ccccc2[nH]1 [compound 262] | > 10 µM
CCN(CC1CCCN(Cc2ccc(Cl)cc2)C1)C(=O)c1cc2cc(Cl)ccc2[nH]1 (centres unmarked) [Compound 160] | < 1.5 µM
CCN(CC1CCN(CCc2cccc(OC)c2)C1)C(=O)c1cc2ccccc2[nH]1 (centres unmarked) [Compound 223] | 1.5 to 4 µM
O=C(NCC1CCN(Cc2ccccc2)CC1)c1cc2ccccc2[nH]1 [compound 295] | 4 to 7 µM
CCN(CC1CCN(Cc2cccc(OC(F)F)c2)CC1)C(=O)c1cc2cc(OC(F)F)ccc2[nH]1 [compound 310] | 4 to 7 µM

Compound | IC50
CCN(CC1CCN(C(C)(C)Cc2cc3ccccc3o2)CC1)C(=O)c1cc2ccccc2[nH]1 [Compound 339] | < 1.5 µM
CCN(CC1CCCNC1)C(=O)c1cc2c(Cl)cc(Cl)cc2[nH]1 (centres unmarked) [compound 416] | > 10 µM
CCN(CC1CCCN(Cc2ccc(Cl)cc2)C1)C(=O)c1cc2cc(OC)c(OC)cc2[nH]1 (centres unmarked) [Compound 152] | > 10 µM
CCN(CC1CCCNC1)C(=O)c1cc2cc(Cl)ccc2[nH]1 (centres unmarked) [compound 420] | > 10 µM
COc1cccc(CCN2CCCC(N(C)C(=O)c3cc4ccccc4[nH]3)C2)c1 (centres unmarked) [Compound 222] | > 10 µM
CCN(CC1CCCN(Cc2ccc(OC)cc2)C1)C(=O)c1cc2c(F)cccc2[nH]1 (centres unmarked) [Compound 166] | > 10 µM
CCN(CC1CCCN(Cc2ccc(OC)cc2)C1)C(=O)c1cc2ccc(OC)cc2[nH]1 (centres unmarked) [Compound 162] | 1.5 to 4 µM
CCN(CC1CCCN(C(C)(C)c2cc3ccccc3o2)C1)C(=O)c1cc2ccccc2[nH]1 (centres unmarked) [compound 317] | 1.5 to 4 µM
COc1cccc(CCN2CCCC(CN(Cc3ccccc3)C(=O)c3cc4ccccc4[nH]3)C2)c1 (centres unmarked) [Compound 218] | > 10 µM
O=C(NCC1CCN(Cc2ccc(F)cc2)CC1)c1cc2ccccc2[nH]1 [compound 294] | > 10 µM
CCN(CC1CCCN(CCc2cccc(OC)c2)C1)C(=O)c1nc2ccccc2[nH]1 (centres unmarked) [Compound 230] | < 1.5 µM
CCN(CC1CCCN(CCc2cccc(OC)c2)C1)C(=O)c1cc(C)c[nH]1 (centres unmarked) [Compound 229] | 1.5 to 4 µM
CCN(CC1CCCNC1)C(=O)c1cc2cc(OC(F)(F)F)ccc2[nH]1 (centres unmarked) [compound 426] | > 10 µM
CCN(CC1CCCN(Cc2ccccc2C#N)C1)C(=O)c1cc2ccccc2[nH]1 (centres unmarked) [Compound 130] | 1.5 to 4 µM
CCN(CC1CCN(CC(C)(C)c2cc3ccccc3o2)CC1)C(=O)c1cc2ccccc2[nH]1 [Compound 405] | 4 to 7 µM
CCN(CC1CCN(C(C)(C)Cc2ccc(Cl)cc2)CC1)C(=O)c1cc2ccccc2[nH]1 [Compound 341] | < 1.5 µM
CCN(CC1CCCNC1)C(=O)c1cc2cc(OC)c(OC)cc2[nH]1 (centres unmarked) [compound 415] | > 10 µM
CCN(CC1CCCN(CCc2cccc(OC)c2)C1)C(=O)c1cn(C)c2ccccc12 (centres unmarked) [Compound 248] | < 1.5 µM
CC(C)N(CC1CCN(Cc2ccccc2F)CC1)C(=O)c1cc2ccccc2[nH]1 [compound 280] | > 10 µM
CCN(CC1CCN(Cc2cccc(OC)c2)CC1)C(=O)c1cc2ccccc2[nH]1 [compound 267] | 1.5 to 4 µM

Compound | IC50
CCN(CC1CCCN(Cc2ccc(OC(F)(F)F)cc2)C1)C(=O)c1cc2cc(OC(F)(F)F)ccc2[nH]1 (centres unmarked) [Compound 176] | > 10 µM
CCN(CC1CCN(C(C)(C)Cc2ccccc2F)CC1)C(=O)c1cc2ccccc2[nH]1 [Compound 343] | 1.5 to 4 µM
CN(CC1CCN(Cc2ccc(F)cc2)CC1)C(=O)c1cc2ccccc2[nH]1 [compound 269] | > 10 µM
O=C(NCC1CCN(Cc2ccc(Cl)cc2)CC1)c1cc2ccccc2[nH]1 [compound 275] | > 10 µM
CCN(CC1CCCN(Cc2cccc(OC(F)F)c2)C1)C(=O)c1cc2cc(OC(F)F)ccc2[nH]1 (centres unmarked) [Compound 177] | < 1.5 µM
CCN(CC1CCCNC1)C(=O)c1cc2cc(OCc3ccccc3)ccc2[nH]1 (centres unmarked) [compound 424] | 4 to 7 µM
CCN(CC1CCCN(Cc2ccc(OC)cc2)C1)C(=O)c1cc2cc(F)ccc2[nH]1 (centres unmarked) [Compound 151] | < 1.5 µM
CCN(CC1CCCN(CCc2ccc(OC)cc2)C1)C(=O)c1cc2ccccc2[nH]1 (centres unmarked) [Compound 127] | < 1.5 µM
COc1cccc(CN2CCC(CN(C)C(=O)c3cc4ccccc4[nH]3)CC2)c1 [compound 257] | 4 to 7 µM
CCN(CC1CCCN(CCc2cccc(OC)c2)C1)C(=O)C1Cc2ccccc2N1C (centres unmarked) [Compound 239] | > 10 µM
CCN(CC1CCN(C(C)(C)Cc2cccc(F)c2OC)CC1)C(=O)c1cc2ccccc2[nH]1 [Compound 364] | < 1.5 µM
CN(CC1CCNCC1)C(=O)c1cc2ccccc2[nH]1 [compound 254] | > 10 µM
CCN(CC1CCCN(C2CCc3ccccc32)C1)C(=O)c1cc2ccccc2[nH]1 (centres unmarked) [Compound 207] | < 1.5 µM
CCN(CC1CCCN(CCc2cccc(OC)c2)C1)C(=O)c1cc2ccccc2n1CC (centres unmarked) [Compound 238] | 1.5 to 4 µM
CCN(CC1CCCN(Cc2cccc(OC)c2)C1)C(=O)c1cc2ccccc2[nH]1 (centres unmarked) [compound 122] | < 1.5 µM
CCN(CC1CCCN(Cc2ccc(Cl)cc2)C1)C(=O)c1cc2cc(F)c(F)cc2[nH]1 (centres unmarked) [Compound 172] | 1.5 to 4 µM
CCN(CC1CCCN(C(C)(C)Cc2cccc(OC(F)F)c2)C1)C(=O)c1cc2cc(OC(F)F)ccc2[nH]1 (centres unmarked) [compound 315] | < 1.5 µM
CCN(CC1CCCN(Cc2cccc(Cl)c2)C1)C(=O)c1cc2ccccc2[nH]1 (centres unmarked) [Compound 134] | 1.5 to 4 µM

Same assay, conditions: inhibition of TDP-43 aggregation; PC12 TDP-43^Q331K::eGFP, 1 hour pre-treatment, 15 μM sodium arsenite for 23 hours; 10-point dose response

Compound | IC50
CCN(CC1CCCN(C(C)(C)Cc2cccc(OC(F)F)c2)C1)C(=O)c1cc2cc(OC(F)F)ccc2[nH]1 (centres unmarked) [Compound 336] | < 1.5 µM
